Patent publication US20140235502A1, “METHOD FOR SCREENING AND QUANTIFYING ISOPRENE BIOSYNTHESIS ENZYME ACTIVITY” (Institute of Bioscience and Biotechnology, priority 2013, published 2014)

Legend:
[1] = system: IspGESS artificial genetic circuit (TbuT regulator); experiment: Quantitative fluorescence response of pIspGESS-containing recombinant E. coli to added compounds (FACS); format: cell-based, E. coli DH5α; settings: for response of IspGESS fluorescence to the compound: 0-2000 μM, FACS; for concentration from which fluorescence started to be sensed: pIspGESS in E. coli DH5α, M9 medium, 30° C. 18 hours, FACS FL1-H
Method: In order to examine the isoprene, toluene, benzene and phenol compounds sensing function of pIspGESS-containing recombinant E. coli, pIspGESS of Example 1 was introduced into a single colony of E. coli DH5α (NEB, USA) by heat shock, and then the E. coli colony was inoculated into an LB liquid medium (1% (w/v) trypton, 0.5% (w/v) yeast extract, and 1% (w/v) sodium chloride) supplemented with 50 μg/Ml of ampicillin and was cultured with shaking at 37° C. for 14 hours. The culture was inoculated into M9 minimal medium (containing 50 μg/Ml ampicillin, 4% glucose and 1% thiamine) at a concentration of 1% and then cultured with shaking at 37° C. for 6 hours. Various concentrations (0-2000 μM) of isoprene was added to each of the test tubes containing the culture broth, after then the culture was cultured with shaking at 30° C. for 18 hours, thereby inducing the expression of fluorescence in the culture. The intensity of intracellular fluorescence induced by each concentration of toluene was analyzed by a FACS Calibur system (Becton Dickinson, USA). As a detector, a FSC, SSC, FL1-H (excitation=488 nm, emission=530/30 nm) detector was set, and data obtained by observing 10,000 samples were analyzed using CellQuest Pro (Becton Dickinson, USA).

[2] = system: IspGESS artificial genetic circuit; experiment: Detection of isoprene synthase activity with IspGESS, pCDF vector (FACS); format: cell-based; settings: E. coli BL21(DE3), FACS 10,000 cells
Method: First, the IspSm1 gene was inserted into the NcoI-AvrII restriction enzyme site of a pCDF-duet vector (Novagen, USA) to prepare pCDF-IspSm1, which was then introduced into an E. coli BL21 (DE3) strain (NEB, USA) containing pIspGESS of […] of ampicillin and 10 μg/Ml of streptomycin were added to LB liquid medium containing 0.1 mM of IPTG (isopropyl-thio-β-Dgalactopyranoside), and E. coli cells were cultured with shaking in the LB liquid medium at 37° C. for 16 hours. Then, the cultured cells were transferred into M9 liquid medium containing 0.1 mM IPTG and were cultured at 28° C. and 200 rpm for 20 hours. […] The intensity of fluorescence in the cultured cells was analyzed using a FACS Calibur system (Becton Dickinson, USA). As a detector, a FSC, SSC, FL1-H (excitation=488 nm, emission=530/30 nm) detector was set, and data obtained by observing 10,000 samples were analyzed.
As a result, 5×10^5 of mutant library was constructed. […] With the criterion for screening, cells showing fluorescence intensity which is at least 50% higher than that of IspSm1 were sorted using a FACScalibur system (Becton Dickinson, USA). Then, 6 clones having higher fluorescence intensity than IspSm1 were isolated.
The activities of the isolated clones were analyzed by a FACS. As detectors, FSC, SSC, FL1-H (excitation=488 nm, emission=530/30 nm) detectors were set, and 10,000 cells were analyzed.

[3] = system: IspGESS artificial genetic circuit; experiment: Detection of isoprene synthase activity with IspGESS, pPROLar vector (FACS, t-test); format: cell-based; settings: E. coli DH5α
Method: First, IspSm1 and IspSm2 genes were amplified using PCR with primers (SEQ ID NOS: 13, 14), and inserted into the NdeI-XbaI restriction enzyme site of a pPROLar vector for pPROLar-ispSm1 and pPROLar-ispSm2 (SEQ ID NOS: 15, 16). Then these two vectors were transformed into an E. coli DH5α strain containing IspGESS of Example 1. 50 μg/Ml of ampicillin and 10 μg/Ml of kanamycin were added to LB liquid medium, and E. coli cells were cultured with shaking in the LB liquid medium at 37° C. for 16 hours. 4 Ml of the culture medium was placed in a 10 Ml vial and the cultured bacterial strain was then inoculated at a concentration of 1%. Then, the vial was sealed with a septum and the cells were cultured at 28° C. and 200 rpm for 24 hours. The intensity of fluorescence in the cultured cells was analyzed using a FACScalibur system (Becton Dickinson, USA). As detectors, FSC, SSC, and FL1-H (excitation=488 nm, emission=530/30 nm) detectors were set, and 10,000 samples were analyzed.
To verify the fluorescence differences of IspSm1, IspSm2 and no IspS induction control, the flow cytometry data was analyzed by t-test. The t-test compared the mean values of the fluorescence signals between the negative control (IspGESS without IspSm1 (IspSm2) induction) and the case that includes IspSm1 (IspSm2) inducer. […] Note that there are three replicates of each case (FIG. 8).

Molecule | response of IspGESS fluorescence to the compound [1] | concentration from which fluorescence started to be sensed [1] [µM] | fluorescence intensity / isoprene synthesis activity compared with IspSm1 [2] | fluorescent mean intensity compared with IspGESS with IspSm1 [3] | intensity of fluorescence compared with cells containing neither IspSm1 nor IspSm2 [3]
c1ccccc1 [benzene] | responded | 1 | – | – | –
Cc1ccccc1 [toluene] | responded | 0.5 | – | – | –
C=CC(=C)C [isoprene] | increased as the isoprene concentration increased | 50 | – | – | –
Oc1ccccc1 [phenol] | responded | 50 | – | – | –
IspSm2: mutant IspSm1 containing L35R (SEQ ID NO: 8), screened from random mutant library (protein, IspSm2) MACSVSTENVSFTETETETRRSANYEPNSWDYDYRLSSDTDESIEVYKDKAKKLEAEVRREINNEKAEFLTLLELIDNVQRLGLGYRFESDIRRALDRFVSSGGFDAVTKTSLHATALSFRLLRQHGFEVSQEAFSGFKDQNGNFLENLKEDIKAILSLYEASFLALEGENILDEAKVFAISHLKELSEEKIGKDLAEQVNHALELPLHRRTQRLEAVLSIEAYRKKEDADQVLLELAILDYNMIQSVYQRDLRETSRWWRRVGLATKLHFARDRLIESFYWAVGVAFEPQYSDCRNSVAKMFSFVTIIDDIYDVYGTLDELELFTNAVERWDVNAIDDLPDYMKLCFLALYNTINEIAYDNLKEKGENILPYLTKAWADLCNAFLQEAKWLYNKSTPTFDDYFGNAWKSSSGPLQLVFAYFAVVQNIKKEEIENLQKYHDIISRPSHIFRLCNDLASASAEIARGETANSVSCYMRTKGISEELATESVMNLIDETWKKMNKEKLGGSLFAKPFVETAINLARQSHCTYHNGDAHTSPDELTRKRVLSVITEPILPFER | – | – | two times higher | higher | higher
